Measured values published in PubChem BioAssay AID1259407 (Chemical Carcinogenesis Research Information System (CCRIS), 2018).
Calls of active or inactive are those of the source. No rule for the calls is given here.

Tested on: CCRIS mutagenicity, Ames/micronucleus/aberration tests
Experiment: CCRIS mutagenicity studies

ClC(Cl)Br
mutagenic call (End Point: Ames Salmonella typhimurium, Test System: TA97, Metabolic Activation: Hamster, liver, S-9 (10 & 30%), Aroclor 1254, Method: Preincubation): inactive; negative | mutagenic call (End Point: Ames Salmonella typhimurium, Test System: TA97, Metabolic Activation: None, Method: Preincubation): inactive; negative | mutagenic call (End Point: Ames Salmonella typhimurium, Test System: TA97, Metabolic Activation: Rat, liver, S-9 (10 & 30%), Aroclor 1254, Method: Preincubation): inactive; negative | mutagenic call (End Point: Ames Salmonella typhimurium, Test System: TA98, Metabolic Activation: Hamster, liver, S-9 (10 & 30%), Aroclor 1254, Method: Preincubation): inactive; negative | mutagenic call (End Point: Ames Salmonella typhimurium, Test System: TA98, Metabolic Activation: None, Method: Preincubation): inactive; negative | mutagenic call (End Point: Ames Salmonella typhimurium, Test System: TA98, Metabolic Activation: Rat, liver, S-9 (10 & 30%), Aroclor 1254, Method: Preincubation): inactive; negative | mutagenic call (End Point: Ames Salmonella typhimurium, Test System: TA100, Metabolic Activation: Hamster, liver, S-9 (10 & 30%), Aroclor 1254, Method: Preincubation): inactive; negative | mutagenic call (End Point: Ames Salmonella typhimurium, Test System: TA100, Metabolic Activation: None, Method: Preincubation): inactive; negative | mutagenic call (End Point: Ames Salmonella typhimurium, Test System: TA100, Metabolic Activation: Rat, liver, S-9 (10 & 30%), Aroclor 1254, Method: Preincubation): inactive; negative | mutagenic call (End Point: Ames Salmonella typhimurium, Test System: TA1535, Metabolic Activation: Hamster, liver, S-9 (10 & 30%), Aroclor 1254, Method: Preincubation): inactive; negative | mutagenic call (End Point: Ames Salmonella typhimurium, Test System: TA1535, Metabolic Activation: None, Method: Preincubation): inactive; negative | mutagenic call (End Point: Ames Salmonella typhimurium, Test System: TA1535, Metabolic Activation: Rat, liver, S-9 (10 & 30%), Aroclor 1254, Method: Preincubation): inactive; negative | mutagenic call (End Point: IN VITRO CHROMOSOMAL ABERRATIONS, Test System: CHINESE HAMSTER LUNG FIBROBLAST CELLS (CHL/IU), Metabolic Activation: RAT, LIVER, S-9, PHENOBARBITAL AND 5,6-BENZOFLAVONE): active; positive (structural changes) | mutagenic call (End Point: IN VITRO CHROMOSOMAL ABERRATIONS, Test System: CHO CELLS, Metabolic Activation: NONE): inactive; negative | mutagenic call (End Point: IN VITRO CHROMOSOMAL ABERRATIONS, Test System: CHO CELLS, Metabolic Activation: RAT, LIVER, S-9, AROCLOR 1254): inactive; negative | mutagenic call (End Point: In vivo micronucleus, Test System: Bone marrow polychromatic erythrocytes, Species: Mouse, Strain/Sex: B6C3F1/Male, Route: Intraperitoneal): inactive; negative; strain was inferred | mutagenic call (End Point: In vivo micronucleus, Test System: Peripheral blood normochromatic erythrocytes, Species: Mouse, Strain/Sex: B6C3F1/Female, Route: Oral): inactive; negative | mutagenic call (End Point: In vivo micronucleus, Test System: Peripheral blood normochromatic erythrocytes, Species: Mouse, Strain/Sex: B6.129-Trp53tm1Brd (N5) p53 Haploinsufficient//Male, Route: Oral): inactive; negative | mutagenic call (End Point: In vivo micronucleus, Test System: Peripheral blood normochromatic erythrocytes, Species: Mouse, Strain/Sex: B6.129-Trp53tm1Brd (N5) p53 Haploinsufficient/Female, Route: Oral): inactive; negative | mutagenic call (End Point: In vivo micronucleus, Test System: Peripheral blood normochromatic erythrocytes, Species: Mouse, Strain/Sex: B6.129-Trp53tm1Brd (N5) p53 Haploinsufficient/Male, Route: Oral): inactive; negative, positive results only at 350 mg/l; trend test not significant. | mutagenic call (End Point: In vivo micronucleus, Test System: Peripheral blood normochromatic erythrocytes, Species: Mouse, Strain/Sex: FVB Tg.AC hemizygous/Female, Route: Dermal): inactive; negative | mutagenic call (End Point: In vivo micronucleus, Test System: Peripheral blood normochromatic erythrocytes, Species: Mouse, Strain/Sex: FVB Tg.AC hemizygous/Female, Route: Oral): inactive; negative | mutagenic call (End Point: In vivo micronucleus, Test System: Peripheral blood normochromatic erythrocytes, Species: Mouse, Strain/Sex: FVB Tg.AC hemizygous/Male, Route: Dermal): inactive; negative | mutagenic call (End Point: In vivo micronucleus, Test System: Peripheral blood normochromatic erythrocytes, Species: Mouse, Strain/Sex: FVB Tg.AC hemizygous/Male, Route: Oral): inactive; negative | mutagenic call (End Point: Mouse Lymphoma, Test System: L5178Y (TK+/TK-), Metabolic Activation: None, Method: Suspension/Plate): inactive; negative | mutagenic call (End Point: Mouse Lymphoma, Test System: L5178Y (TK+/TK-), Metabolic Activation: Rat, liver, S-9, Aroclor 1254, Method: Suspension/Plate): active; positive | mutagenic call (Test System: AMES SALMONELLA TYPHIMURIUM, Strain/Indicator: RSJ100, Metabolic Activation: NONE, Method: STANDARD PLATE): active; positive | mutagenic call (Test System: AMES SALMONELLA TYPHIMURIUM, Strain/Indicator: TA97, Metabolic Activation: NONE, Method: STANDARD PLATE): inactive; negative | mutagenic call (Test System: AMES SALMONELLA TYPHIMURIUM, Strain/Indicator: TA97, Metabolic Activation: RAT, LIVER, S-9, AROCLOR 1254, Method: STANDARD PLATE): active; positive | mutagenic call (Test System: AMES SALMONELLA TYPHIMURIUM, Strain/Indicator: TA98, Metabolic Activation: HAMSTER, LIVER, S-9, AROCLOR 1254, Method: PREINCUBATION): inactive; negative | mutagenic call (Test System: AMES SALMONELLA TYPHIMURIUM, Strain/Indicator: TA98, Metabolic Activation: NONE, Method: PREINCUBATION): inactive; negative | mutagenic call (Test System: AMES SALMONELLA TYPHIMURIUM, Strain/Indicator: TA98, Metabolic Activation: NONE, Method: STANDARD PLATE): inactive; negative | mutagenic call (Test System: AMES SALMONELLA TYPHIMURIUM, Strain/Indicator: TA98, Metabolic Activation: RAT, LIVER, S-9, AROCLOR 1254, Method: PREINCUBATION): inactive; negative | mutagenic call (Test System: AMES SALMONELLA TYPHIMURIUM, Strain/Indicator: TA100, Metabolic Activation: HAMSTER, LIVER, S-9, AROCLOR 1254, Method: PREINCUBATION): inactive; negative | mutagenic call (Test System: AMES SALMONELLA TYPHIMURIUM, Strain/Indicator: TA100, Metabolic Activation: NONE, Method: DESICCATOR): active; positive | mutagenic call (Test System: AMES SALMONELLA TYPHIMURIUM, Strain/Indicator: TA100, Metabolic Activation: NONE, Method: FLUCTUATION TEST): inactive; negative | mutagenic call (Test System: AMES SALMONELLA TYPHIMURIUM, Strain/Indicator: TA100, Metabolic Activation: NONE, Method: PREINCUBATION): inactive; negative | mutagenic call (Test System: AMES SALMONELLA TYPHIMURIUM, Strain/Indicator: TA100, Metabolic Activation: NONE, Method: STANDARD PLATE): inactive; negative | mutagenic call (Test System: AMES SALMONELLA TYPHIMURIUM, Strain/Indicator: TA100, Metabolic Activation: RAT, LIVER, S-9, AROCLOR 1254, Method: FLUCTUATION TEST): inactive; negative | mutagenic call (Test System: AMES SALMONELLA TYPHIMURIUM, Strain/Indicator: TA100, Metabolic Activation: RAT, LIVER, S-9, AROCLOR 1254, Method: PREINCUBATION): inactive; negative | mutagenic call (Test System: AMES SALMONELLA TYPHIMURIUM, Strain/Indicator: TA104, Metabolic Activation: NONE, Method: STANDARD PLATE): inactive; negative | mutagenic call (Test System: AMES SALMONELLA TYPHIMURIUM, Strain/Indicator: TA104, Metabolic Activation: RAT, LIVER, S-9, AROCLOR 1254, Method: STANDARD PLATE): active; positive | mutagenic call (Test System: AMES SALMONELLA TYPHIMURIUM, Strain/Indicator: TA1535 (GST+), Metabolic Activation: NONE, Method: STANDARD PLATE): active; positive | mutagenic call (Test System: AMES SALMONELLA TYPHIMURIUM, Strain/Indicator: TA1535 (GST-), Metabolic Activation: NONE, Method: STANDARD PLATE): inactive; negative | mutagenic call (Test System: AMES SALMONELLA TYPHIMURIUM, Strain/Indicator: TA1535, Metabolic Activation: HAMSTER, LIVER, S-9, AROCLOR 1254, Method: PREINCUBATION): inactive; negative | mutagenic call (Test System: AMES SALMONELLA TYPHIMURIUM, Strain/Indicator: TA1535, Metabolic Activation: NONE, Method: PREINCUBATION): inactive; negative | mutagenic call (Test System: AMES SALMONELLA TYPHIMURIUM, Strain/Indicator: TA1535, Metabolic Activation: RAT, LIVER, S-9, AROCLOR 1254, Method: PREINCUBATION): inactive; negative | mutagenic call (Test System: AMES SALMONELLA TYPHIMURIUM, Strain/Indicator: TA1535, Metabolic Activation: RAT, LIVER, S-9, AROCLOR 1254, Method: STANDARD PLATE): inactive; negative | mutagenic call (Test System: AMES SALMONELLA TYPHIMURIUM, Strain/Indicator: TA1537, Metabolic Activation: HAMSTER, LIVER, S-9, AROCLOR 1254, Method: PREINCUBATION): inactive; negative | mutagenic call (Test System: AMES SALMONELLA TYPHIMURIUM, Strain/Indicator: TA1537, Metabolic Activation: NONE, Method: PREINCUBATION): inactive; negative | mutagenic call (Test System: AMES SALMONELLA TYPHIMURIUM, Strain/Indicator: TA1537, Metabolic Activation: NONE, Method: STANDARD PLATE): active; positive | mutagenic call (Test System: AMES SALMONELLA TYPHIMURIUM, Strain/Indicator: TA1537, Metabolic Activation: RAT, LIVER, S-9, AROCLOR 1254, Method: PREINCUBATION): inactive; negative | mutagenic call (Test System: AMES SALMONELLA TYPHIMURIUM, Strain/Indicator: TA1537, Metabolic Activation: RAT, LIVER, S-9, AROCLOR 1254, Method: STANDARD PLATE): inactive; negative | mutagenic call (Test System: MOUSE LYMPHOMA, Strain/Indicator: L5178Y (TK+/TK-), Metabolic Activation: NONE, Method: MICROWELL): inactive; negative | mutagenic call (Test System: MOUSE LYMPHOMA, Strain/Indicator: L5178Y (TK+/TK-), Metabolic Activation: NONE, Method: SUSPENSION/PLATE): inactive; negative | mutagenic call (Test System: MOUSE LYMPHOMA, Strain/Indicator: L5178Y (TK+/TK-), Metabolic Activation: RAT, LIVER, S-9, AROCLOR 1254, Method: SUSPENSION/PLATE): active; positive | mutagenic call (Test System: MOUSE LYMPHOMA, Strain/Indicator: L5178Y (TK+/TK-), Metabolic Activation: S-9, Method: MICROWELL): active; positive | mutagenic call (Test System: UDS RAT HEPATOCYTES, Strain/Indicator: THY INCORP, Metabolic Activation: NONE, Method: AUTORADIOGRAPHY): inactive; negative
